Data reported in patent US4847253A, “Antiparkinson ergoline derivatives” (Farmitalia Carlo Erba, priority 1987, dated 1989).
Entries after “also recorded” stand apart in the source; their conditions may differ.

Legend:
[1] = test system: apomorphine-induced climbing; assay: Antagonism to apomorphine-induced climbing in normal mice; assay type: in vivo; settings: for ED50: Mus musculus, po
Description: The anti-dopaminergic activity in normal mice of the ergoline derivatives according to the invention was assessed by the antagonism to apomorphine-induced climbing (Protais, P. et al., Psychopharmacology, 50, 1, 1976).

6-OHDA lesioned rats = assay: Contralateral turning behavior in 6-OHDA lesioned rats; assay type: in vivo, Male (ICR) Wistar rats; settings: scored for six hours
Description: The profile of dopamine agonists of the compound of the formula I was preliminary discovered by an induction of contralateral turning in rats with unilateral 6-hydroxy dopamine-induced lesions of the dopaminergic nigrostriatal pathway (according to the principles of U. Ungerstedt et al., Brain Research 24 (1970); p. 485).
Male (ICR) Wistar rats (290-310 g) anaesthetized i.p. with 50 mg/kg pentobarbital sodium were placed in a Stoelting stereotaxis frame and unilaterally injected with 6-hydroxy-dopamine (6-OHDA) in substantia nigra, pars compacta (8 μg of free base in 4 μl of saline kept ice cold with 0.2% ascorbic acid at the rate of 1 μl/min.). The neurotoxin was injected via a 10 μl Hamilton syringe under the following coordinates: A, 3.7 mm anterior to interaural line; V. 2.2 mm dorsal to interaural line; L, 2.2 mm from midline, according to Paxinos and Watson (The rat brain in stereotaxic coordinates. Academic Press, Sydney, Australia, 1982).
The needle was left in place 5 minutes further before being slowly withdrawn.
Following recovery from anaesthesia, rats were housed in a cage and given access to food and water ad libitum. After a 3 week recovery, rats were injected with apomorphine (0.5 mg/kg s.c.) and immediately put in automated rotometer bowls with a printing unit for 3 hours.
Only rats showing contralateral turning behavior totalling at least 250 complete turns within the control time, were used for the test with the compounds.
The test compounds were injected subcutaneously and rotational behavior scored each time for six hours.
All tested compounds were administered in a fixed volume (2 ml/kg body weight).

[2] = known side effects, background; cited from earlier work
non-MPTP treated monkeys = assay: Behavior in non-MPTP treated monkeys; assay type: in vivo; settings: s.c.
Reserpine-Treated Mice = assay: Locomotor activity in reserpine-treated mice; assay type: in vivo, Male mice, Crl:CD-1 (ICR) BR strain; settings: for No. of counts in 85 min.: reserpine 5 mg/kg i.p. pretreated; for locomotor activity in akinetic reserpinized mice: result in words, FCE 23884 at 1 mg/kg s.c.
Description: Male mice, (22-25 g) of the Crl:CD^R -1 (ICR) BR strain, were used. Injection volume for drugs was 0.5 ml/100 g body weight. Locomotor activity in mice was examined from 5 up to 90 min. by use of two "Columbus activity Meters" placing 5 animals per cage after each treatment. Comparison was made with reserpine treated animals (5 mg/kg i.p.) receiving saline (controls).
Groups of five mice were used each time. Eighteen hours reserpine pretreated mice were subcataneously injected with the test compound or apomorphine or saline.
Five minutes later, the animals were tested for locomotor activity according D. Hinzen et al., European Journal of Pharmacology 131 (1986) 75-86.

MPTP treated monkeys = assay: MPTP-induced parkinsonism in monkey model; assay type: in vivo, Marmosets and cynomolgus
Excerpt: In nonhuman primates MPTP (1-methyl-4-phenyl-1,2,3,6-tetrahydropyridine) selectively destroys dopaminergic neurons in the substantia nigra pars compacta as has been shown in different primate species (1) (2) including the common marmoset and cynomolgus.
Repeated administration of MPTP produces varying degrees of akinesia or bradykinesia accompanied by rigidity of limbs, loss of vocalization and postural tremor.
Marmosets and cynomolgus were employed in these experiments. Each animal was administered a variable dosage regime showing them to have an individual susceptibility to MPTP according to Jenner et al. (3).
For the marmoset the cumulative dose was between 11-29 mg/kg i.p. over time courses of 4-10 days for three marmosets and 10-12 mg/kg i.p. for two cynomolgus in 4 days. All the monkeys were severely affected, completely akinetic and rigid with loss of vocalization, and blink reflex, with some postural tremor and were rendered unable to eat by themselves. After two or three days of wash-out to avoid the acute effect of MPTP administration, compound FCE 23884 was injected subcutaneously once a day starting from the dose 0.1 mg/kg up to 2 mg/kg.
Saline was administered in alternate fashion every three treatements to avoid the normal described improvement after the suspension of MPTP administration.

## CC(C)C[C@H]1C(=O)N2CCC[C@H]2[C@]2(O)O[C@](NC(=O)[C@@H]3C=C4c5cccc6[nH]c(Br)c(c56)C[C@H]4N(C)C3)(C(C)C)C(=O)N12 [Bromocriptine, reference compound]
[1]; p.o.
  Apomorphine antagonism (ED50): Inactive at 10 mg/kg
6-OHDA lesioned rats; 1.0 mg/kg s.c.
  No. of contralateral turns (X) in turning rats: 1922.3
  Turning rats/Treated rats: 6/9
[2]
  adverse effects: emesis, hypotension, cardiac arrhythmia, digital vasospasm in cold weather, conjunctival irritation, diplopia, nasal stuffiness, constipation and syndrome of bilateral red, tender edema of the lower limbs and neuroendocrine alterations

## CN1C(=O)CN(C[C@@H]2C[C@@H]3c4cccc5[nH]cc(c45)C[C@H]3N(C)C2)CC1=O [FCE 23710, 6-Methyl-8β-(3,5-dioxo-4-methyl-piperazin-1-yl-methyl)-ergoline]
[1]
  ED50: 2.2 mg/kg
6-OHDA lesioned rats; 1.0 mg/kg s.c.
  No. of contralateral turns (X) in turning rats: 1829.2
  Turning rats/Treated rats: 4/4

## CN1C[C@H](CN2CC(=O)NC(=O)C2)C=C2c3cccc4[nH]cc(c34)C[C@H]21 [FCE 23884, 6-Methyl-9,10-didehydro-8β-(3,5-dioxo-piperazin-1-yl-methyl)-ergoline]
[1]
  ED50: 0.5 mg/kg
non-MPTP treated monkeys
  behavioral effect in non-MPTP treated monkeys: sedative effect in a dose-dependent fashion; also recorded: antidopaminergic in non MPTP-treated monkeys
6-OHDA lesioned rats; 0.1 mg/kg s.c.
  No. of contralateral turns (X) in turning rats: 1317.5
  Turning rats/Treated rats: 9/10
6-OHDA lesioned rats; 0.5 mg/kg s.c.
  No. of contralateral turns (X) in turning rats: 2591.7
  Turning rats/Treated rats: 10/10
6-OHDA lesioned rats; 1.0 mg/kg s.c.
  No. of contralateral turns (X) in turning rats: 2146
  Turning rats/Treated rats: 5/5
Reserpine-Treated Mice; 1.0 mg/kg s.c.
  No. of counts in 85 min.: 625
Reserpine-Treated Mice
  locomotor activity in akinetic reserpinized mice: elicits locomotor activity as does apomorphine
MPTP treated monkeys; highest dose, 2 mg/kg s.c.
  reversal of akinesia, time of onset: 5 min
MPTP treated monkeys; lowest dose, 0.1 mg/kg s.c.
  reversal of akinesia, time of onset: 30 min
MPTP treated monkeys; s.c.
  effect in lesioned / MPTP treated monkeys: dopaminergic effect in lesioned animals; also recorded: dopaminergic agent in the MPTP treated monkeys
MPTP treated monkeys; s.c. once a day, 0.1 mg/kg up to 2 mg/kg
  Reversal of akinesia: Reversal of akinesia in a dose-dependent fashion was observed

## CN1C[C@H](CN2CC(=O)NC(=O)C2)C[C@@H]2c3cccc4c3c(cn4C)C[C@H]21 [FCE 23952, 1,6-Dimethyl-8β-(3,5-dioxo-piperazin-1-yl-methyl)-ergoline]
[1]
  ED50: 0.9 mg/kg
6-OHDA lesioned rats; 1.0 mg/kg s.c.
  No. of contralateral turns (X) in turning rats: 710.5
  Turning rats/Treated rats: 4/4

## CN1CCc2cccc3c2[C@H]1Cc1ccc(O)c(O)c1-3 [apomorphine, reference compound]
Reserpine-Treated Mice; 0.05 mg/kg s.c.
  No. of counts in 85 min.: 413
Reserpine-Treated Mice
  locomotor activity in akinetic reserpinized mice: elicits locomotor activity
